Measurements reported in patent US20110034469A1, “Heterocyclic Compound” (TAKEDA PHARMACEUTICAL COMPANY LIMITED, priority 2009, published 2011).
Structures can show the parent of a compound that is named as a salt.

molecular target: human XIAP_BIR3 domain purified protein (Homo sapiens, UniProt P98170); test: Human XIAP binding inhibitory activity (HTRF, b-Smac ligand); details: read-out: XIAP binding inhibitory rate (%) at 3 μM of the test compound
Sequence (P98170 252-356 limits assumed): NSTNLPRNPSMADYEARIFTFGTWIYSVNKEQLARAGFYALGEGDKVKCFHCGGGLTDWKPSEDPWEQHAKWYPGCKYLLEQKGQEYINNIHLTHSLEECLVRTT

Compound	inhibition at 3 µM [%]
CN[C@@H](C)C(=O)N[C@H](C(=O)N1C[C@H]2CCCN2C[C@H]1C(=O)N[C@H]1c2ccccc2C[C@H]1O)C1CCCCC1 [Example 27, (3S,8aR)-2-{(2S)-2-cyclohexyl-2-[(N-methyl-L-alanyl)amino]acetyl}-N-[(1S,2R)-2-hydroxy-2,3-dihydro-1H-inden-1-yl]octahydropyrrolo[1,2-a]pyrazine-3-carboxamide dihydrochloride]	97.2
CN[C@@H](C)C(=O)N[C@@H](CCCCNC(=O)CCCCCCCCC(=O)NCCCC[C@H](NC(=O)[C@H](C)NC)C(=O)N1C[C@H]2CCCN2C[C@H]1C(=O)N[C@@H]1CCCc2ccccc21)C(=O)N1C[C@H]2CCCN2C[C@H]1C(=O)N[C@@H]1CCCc2ccccc21 [Example 126, N,N′-bis{(5S)-5-[(N-methyl-L-alanyl)amino]-6-oxo-6-[(3S,8aR)-3-[(1R)-1,2,3,4-tetrahydronaphthalen-1-ylcarbamoyl]hexahydropyrrolo[1,2-a]pyrazin-2(1H)-yl]hexyl}decanediamide]	99
CN[C@@H](C)C(=O)N[C@H](C(=O)N1C[C@H]2C[C@@](C)(O)CN2C[C@H]1C(=O)N[C@@H]1CCOc2ccccc21)C1CCCCC1 [Example 41, (3S,7R,8aR)-2-{(2S)-2-cyclohexyl-2-[(N-methyl-L-alanyl)amino]acetyl}-N-[(4R)-3,4-dihydro-2H-chromen-4-yl]-7-hydroxy-7-methyloctahydropyrrolo[1,2-a]pyrazine-3-carboxamide dihydrochloride]	93.5
CCO[C@@H]1C[C@@H]2CN(C(=O)[C@@H](NC(=O)[C@H](CC)NC)C3CCC(F)(F)CC3)[C@H](C(=O)N[C@@H]3CCOc4ccccc43)CN2C1 [Example 127, (3S,7R,8aR)-2-[(2S)-2-(4,4-difluorocyclohexyl)-2-{[(2S)-2-(methylamino)butanoyl]amino}acetyl]-N-[(4R)-3,4-dihydro-2H-chromen-4-yl]-7-ethoxyoctahydropyrrolo[1,2-a]pyrazine-3-carboxamide]	98
CN[C@@H](C)C(=O)N[C@H](C(=O)N1C[C@H]2CC(F)(F)CN2C[C@H]1C(=O)N[C@@H]1CCOc2ccccc21)C1CCCCC1 [Example 50, (3S,8aR)-2-{(2S)-2-cyclohexyl-2-[(N-methyl-L-alanyl)amino]acetyl}-N-[(4R)-3,4-dihydro-2H-chromen-4-yl]-7,7-difluorooctahydropyrrolo[1,2-a]pyrazine-3-carboxamide dihydrochloride]	97.1
CN[C@@H](C)C(=O)N[C@@H](CCCCNC(=O)OCc1ccccc1)C(=O)N1C[C@H]2CCCN2C[C@H]1C(=O)N[C@@H]1CCCc2ccccc21 [Example 6, benzyl{(5S)-5-[(N-methyl-L-alanyl)amino]-6-oxo-6-[(3S,8aR)-3-[(1R)-1,2,3,4-tetrahydronaphthalen-1-ylcarbamoyl]hexahydropyrrolo[1,2-a]pyrazin-2(1H)-yl]hexyl}carbamate dihydrochloride]	98.8
CCO[C@@H]1C[C@@H]2CN(C(=O)[C@@H](NC(=O)[C@H](C)NC)C3CCCCC3)[C@H](C(=O)N[C@@H]3CCOc4ccccc43)CN2C1 [Example 18, (3S,7R,8aR)-2-{(2S)-2-cyclohexyl-2-[(N-methyl-L-alanyl)amino]acetyl}-N-[(4R)-3,4-dihydro-2H-chromen-4-yl]-7-ethoxyoctahydropyrrolo[1,2-a]pyrazine-3-carboxamide]	99.6
CN[C@@H](C)C(=O)N[C@@H](CCCNC(=O)OCc1ccccc1)C(=O)N1C[C@H]2CCCN2C[C@H]1C(=O)N[C@@H]1CCCc2ccccc21 [Example 5, benzyl{(4S)-4-[(N-methyl-L-alanyl)amino]-5-oxo-5-[(3S,8aR)-3-((1R)-1,2,3,4-tetrahydronaphthalen-1-ylcarbamoyl)hexahydropyrrolo[1,2-a]pyrazin-2(1H)-yl]pentyl}carbamate dihydrochloride]	99.2
CN[C@@H](C)C(=O)N[C@H](C(=O)N1C[C@H]2C[C@@H](OCC3CC3)CN2C[C@H]1C(=O)N[C@@H]1CCOc2ccccc21)C1CCCCC1 [Example 82, (3S,7R,8aR)-2-{(2S)-2-cyclohexyl-2-[(N-methyl-L-alanyl)amino]acetyl}-7-(cyclopropylmethoxy)-N-[(4R)-3,4-dihydro-2H-chromen-4-yl]octahydropyrrolo[1,2-a]pyrazine-3-carboxamide]	96.6
CN[C@@H](C)C(=O)N[C@@H](CCCCNC(=O)c1ccc(C(=O)NCCCC[C@H](NC(=O)[C@H](C)NC)C(=O)N2C[C@H]3CCCN3C[C@H]2C(=O)N[C@@H]2CCCc3ccccc32)cc1)C(=O)N1C[C@H]2CCCN2C[C@H]1C(=O)N[C@@H]1CCCc2ccccc21 [Example 125, N,N′-bis{(5S)-5-[(N-methyl-L-alanyl)amino]-6-oxo-6-[(3S,8aR)-3-[(1R)-1,2,3,4-tetrahydronaphthalen-1-ylcarbamoyl]hexahydropyrrolo[1,2-a]pyrazin-2(1H)-yl]hexyl}benzene-1,4-dicarboxamide]	98.9
CN[C@@H](C)C(=O)N[C@H](C(=O)N1C[C@H]2CCCN2C[C@H]1C(=O)N[C@@H]1CCOc2cc(F)cc(F)c21)C1CCCCC1 [Example 24, (3S,8aR)-2-{(2S)-2-cyclohexyl-2-[(N-methyl-L-alanyl)amino]acetyl}-N-[(4R)-5,7-difluoro-3,4-dihydro-2H-chromen-4-yl]octahydropyrrolo[1,2-a]pyrazine-3-carboxamide dihydrochloride]	97.3
CCO[C@@H]1C[C@@H]2CN(C(=O)[C@@H](NC(=O)[C@H](CC)NC)C3CCCCC3)[C@H](C(=O)N[C@@H]3CCOc4ccccc43)CN2C1 [Example 91, (3S,7R,8aR)-2-[(2S)-2-cyclohexyl-2-{[(2S)-2-(methylamino)butanoyl]amino}acetyl]-N-[(4R)-3,4-dihydro-2H-chromen-4-yl]-7-ethoxyoctahydropyrrolo[1,2-a]pyrazine-3-carboxamide]	95.5

system: human breast cancer cell MDA-MB-231-Luc; test: In vivo breast cancer cell tumor regression activity; details: orally 100 mg/kg, twice per day for 14 days; subcutaneous MDA-MB-231-Luc tumor in female nude mouse
Protocol: MDA-MB-231 cells (American Tissue Culture Collection) were suspended in DMEM medium (Invitrogen) containing 10% fetal bovine serum (Cell Culture Bioscience), plated in a 12-well plate at 1×10^5 cells/mL, each well 1 mL, and the cells were cultured. After 24 hr of culture, the medium was removed, 100 μL of OMEM (Invitrogen) containing […] of pGL4 CMV-luc/Neo plasmid and Lipofectamin LTX (Invitrogen) was added to each well for transfection according to the attached instruction manual. After the plasmid DNA introduction is operation for 25 min., the medium was exchanged with DMEM medium, and the cells were further cultured for 72 hr. The introduced cells were suspended in a medium containing […] G418 (Sigma Ltd.) by a trypsin (Invitrogen) treatment, and plated again in a 6-well plate. […] Finally, MDA-MB-231 cells capable of growing in a medium containing […] G418 were treated by a limit dilution method to give a single colony. Luciferin (Promega) was added to MDA-MB-231 cells in each clone, and the chemical luminescence level was measured using ARVO (PerkinElmer) to give MDA-MB-231-Luc.
The human breast cancer cell MDA-MB-231-Luc ([…]) obtained in Experimental Example 5 were suspended in Matrigel solution (BD Bioscience) and transplanted into 6-week-old BALE/c female nude mouse (CLEA Japan, Inc.) by subcutaneous injection. Mice with a tumor engrafted at a size in tumor volume of about 200 mm^3 on day 12-15 post-transplantation were selected and 5 per group were used for the experiment. A 0.5% methylcellulose (Wako Pure Chemical Industries, Ltd.) suspension or 0.1 M PBS solution (NaH2PO4/Na2HPO4, pH 5.8) of the compound was orally administered at a dose of 100 mg/kg, twice per day for 14 days. The tumor diameter was measured on the day of start of the administration and the day of completion of the administration, and the tumor volume was obtained from formula 1.
tumor volume=long diameter×short diameter×short diameter×(½) formula 1
The ratio of the value obtained by subtracting tumor volume on the day of completion of the administration from that on the day of start of the administration to the tumor volume on the day of start of the administration was obtained as a tumor regression rate from the formula 2.
tumor regression rate (%)=(tumor volume on the day of start of administration−tumor volume on the day of completion of administration)/tumor volume on the day of start of administration×100 formula 2

Compound	tumor regression rate (%)
CCO[C@@H]1C[C@@H]2CN(C(=O)[C@@H](NC(=O)[C@H](C)NC)C3CCC(F)(F)CC3)[C@H](C(=O)N[C@@H]3CCOc4ccccc43)CN2C1 [Example 23, (3S,7R,8aR)-2-{(2S)-2-(4,4-difluorocyclohexyl)-2-[(N-methyl-L-alanyl)amino]acetyl}-N-[(4R)-3,4-dihydro-2H-chromen-4-yl]-7-ethoxyoctahydropyrrolo[1,2-a]pyrazine-3-carboxamide]	74
CN[C@@H](C)C(=O)N[C@H](C(=O)N1C[C@H]2CCCN2C[C@H]1C(=O)N[C@@H]1CCOc2ccccc21)C1CCC(F)(F)CC1.Cl.Cl [Example 32, (3S,8aR)-2-{(2S)-2-(4,4-difluorocyclohexyl)-2-[(N-methyl-L-alanyl)amino]acetyl}-N-[(4R)-3,4-dihydro-2H-chromen-4-yl]octahydropyrrolo[1,2-a]pyrazine-3-carboxamide dihydrochloride]	61
CCO[C@@H]1C[C@@H]2CN(C(=O)[C@@H](NC(=O)[C@H](C)NC)C3CCCCC3)[C@H](C(=O)N[C@@H]3CCOc4ccccc43)CN2C1 [Example 18, (3S,7R,8aR)-2-{(2S)-2-cyclohexyl-2-[(N-methyl-L-alanyl)amino]acetyl}-N-[(4R)-3,4-dihydro-2H-chromen-4-yl]-7-ethoxyoctahydropyrrolo[1,2-a]pyrazine-3-carboxamide]	78
CN[C@@H](C)C(=O)N[C@H](C(=O)N1C[C@H]2CCCN2C[C@H]1C(=O)N[C@H]1c2ccccc2C[C@@H]1O)C1CCCCC1.Cl.Cl [Example 26, (3S,8aR)-2-{(2S)-2-cyclohexyl-2-[(N-methyl-L-alanyl)amino]acetyl}-N-[(1S,2S)-2-hydroxy-2,3-dihydro-1H-inden-1-yl]octahydropyrrolo[1,2-a]pyrazine-3-carboxamide dihydrochloride]	41
CN[C@@H](C)C(=O)N[C@H](C(=O)N1C[C@H]2CCCN2C[C@H]1C(=O)N[C@@H]1CCOc2ccccc21)c1ccccc1.Cl.Cl [Example 19, (3S,8aR)—N-[(4R)-3,4-dihydro-2H-chromen-4-yl]-2-{(2S)-2-[(N-methyl-L-alanyl)amino]-2-phenylacetyl}octahydropyrrolo[1,2-a]pyrazine-3-carboxamide dihydrochloride]	64
CN[C@@H](C)C(=O)N[C@H](C(=O)N1C[C@H]2CCCN2C[C@H]1C(=O)N[C@@H]1CCOc2cc(F)cc(F)c21)C1CCCCC1 [Example 24, (3S,8aR)-2-{(2S)-2-cyclohexyl-2-[(N-methyl-L-alanyl)amino]acetyl}-N-[(4R)-5,7-difluoro-3,4-dihydro-2H-chromen-4-yl]octahydropyrrolo[1,2-a]pyrazine-3-carboxamide dihydrochloride]	55
